Experimental findings from patent US12441709B2, “Therapeutic compounds” (INDIVIOR UK LIMITED, priority 2016, dated 2025) are described below.

Like-named read-outs stand apart in the source and are kept apart here.

One experiment has as its target T1, human OX2 receptor (Homo sapiens, UniProt O43614).
T1 construct: expressed in transfected cells; host or cells: CHO cell line (membranes)
T1 sequence (O43614 1-444): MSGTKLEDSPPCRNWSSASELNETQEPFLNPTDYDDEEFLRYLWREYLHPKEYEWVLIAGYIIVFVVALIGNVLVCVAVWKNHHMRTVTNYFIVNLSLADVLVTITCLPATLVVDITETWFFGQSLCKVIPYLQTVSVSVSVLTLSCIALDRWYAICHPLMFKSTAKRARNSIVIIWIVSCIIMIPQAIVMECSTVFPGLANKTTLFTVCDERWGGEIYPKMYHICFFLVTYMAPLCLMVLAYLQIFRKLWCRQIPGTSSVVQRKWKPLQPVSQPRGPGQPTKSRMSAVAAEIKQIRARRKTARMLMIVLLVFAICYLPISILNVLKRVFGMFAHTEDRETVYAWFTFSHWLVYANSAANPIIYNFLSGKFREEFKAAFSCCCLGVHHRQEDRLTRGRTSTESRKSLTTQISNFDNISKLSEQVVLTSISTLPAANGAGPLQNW
The experiment is described as follows: Orexin 2 receptor radioligand binding assay ([3H]-EMPA competition). Particulars: CHO membranes, 2 nM [3H]-EMPA, 60 min room temperature; read-out: hOX2 pKi (converted). The method, then: Orexin 2 Receptor Radioligand Binding Assay:
Cell membranes were prepared from the human Ox2 receptor expressing CHO cell line. The harvested cell pellets were homogenized in ice-cold buffer (15 mM TrisHCl (pH 7.4), 2 mM MgCl2, 0.3 mM EDTA, 1 mM EGTA, Sigma FAST™ protease inhibitor cocktail) and centrifuged at 45,000 rpm for 30 min at 4° C. After discarding the supernatants the pellets were re-suspended in the before mentioned buffer followed by homogenization and another centrifugation. Obtained pellets were re-suspended in ice cold buffer containing 75 mM TrisHCl (pH 7.5), 12.5 mM MgCl2, 0.3 mM EDTA, 1 mM EGTA, 250 mM sucrose and a Sigma FAST TM protease inhibitor cocktail. After protein quantification with the Pierce Protein Assay Kit, using BSA as standard, the membrane homogenates were aliquoted and frozen down at […] until further use.
Expression levels of the Ox2 receptor (Bmax) were determined by saturation binding and the Kd of the radioligand [^3H]EMPA was determined by association and dissociation kinetics. Data were elaborated with Graph Pad Prism using radioligand binding analysis. Steady state binding was reached after 60 min of incubation at room temperature. […]

The target of a further experiment is T2, human Orexin 1 receptor (Homo sapiens, UniProt O43613).
T2 construct: expressed in transfected cells
T2 sequence (O43613 1-425): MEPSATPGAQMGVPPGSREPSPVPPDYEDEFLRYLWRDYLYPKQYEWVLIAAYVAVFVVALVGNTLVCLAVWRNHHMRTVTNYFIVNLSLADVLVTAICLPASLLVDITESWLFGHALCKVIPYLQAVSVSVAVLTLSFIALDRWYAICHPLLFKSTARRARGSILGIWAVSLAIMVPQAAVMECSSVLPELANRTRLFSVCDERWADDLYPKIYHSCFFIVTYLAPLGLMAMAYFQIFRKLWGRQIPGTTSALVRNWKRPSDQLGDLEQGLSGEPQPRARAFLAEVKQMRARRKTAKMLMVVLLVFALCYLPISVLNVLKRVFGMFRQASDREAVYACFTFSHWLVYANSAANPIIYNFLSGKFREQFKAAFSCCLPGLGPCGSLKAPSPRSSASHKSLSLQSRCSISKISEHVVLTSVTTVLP
The experiment in a line: Kinetics of competitive binding (Motulsky and Mahan analysis), Orexin 1 receptor. Particulars: for Ki: read-out: pKi (M&M) (converted). The method, then:
(§1) Kinetics of Competitive Binding (Motulski and Mahan's Analysis):
(§2) Motulsky and Mahan characterisation of the Examples was performed as described by Faedo et al., European Journal of Pharmacology 692(2012), p. 1-9 with the following modifications:
(§3) The association binding experiment was initiated by addition of membranes expressing the human Orexin 1 receptor at different times to the incubation buffer containing 1 nM of [^3H] SB674042. Non-specific binding was determined in the presence of 10 μM of SB674042. The association of the radioligand to the orexin receptor was performed as described for the kinetics experiment in the presence of the competing test compounds. The competing test compounds were assayed at three concentrations corresponding to 3, 10 and 30 fold of the determined Ki. For kinetic binding studies of the human Orexin 2 receptor, the method described for the Orexin 1 receptor was used with modifications that membranes expressing the human Orexin 2 receptor were incubated in buffer containing 1 nM of [3H] EMPA and non-specific binding was determined in the presence of 10 μM ACT-078573.

Another experiment addresses T3, human Orexin 2 receptor (Homo sapiens, UniProt O43614).
T3 construct: expressed in transfected cells
T3 sequence (O43614 1-444): T1 sequence (O43614 1-444)
The experiment is described as follows: Kinetics of competitive binding (Motulsky and Mahan analysis), Orexin 2 receptor. Particulars: mean of 3 studies (n=3); for Ki: 1 nM [3H] EMPA, read-out: pKi (M&M) (converted). As for the experimental part:
as §1, §2, §3
The results for the Orexin-2 Receptor studies are the mean of the results from 3 studies (n=3) for both Example compounds.

Where [1] appears, read: further test results (Example 1 n = 3, Example 2 n = 1).
Where [2] appears, read: mean of all results (Example 1 n = 5, Example 2 n = 3).
Setting [3] is: mean of initial results (n = 2).

The koff is a measure of how fast the partners let go of each other. A higher koff goes with fast dissociation. For orientation: kon means a measure of how fast the partners come together. A lower kon goes with slower complex formation. With `Cc1ccc(-n2nccn2)c(C(=O)N(C)[C@@H](C)CNc2cnc(C(F)(F)F)cn2)n1` [Example 1, N,6-dimethyl-3-(2H-1,2,3-triazol-2-yl)-N-[(2S)-1-{[5-(trifluoromethyl)pyrazin-2-yl]amino}propan-2-yl]pyridine-2-carboxamide], the Ki at human OX2 receptor is 251 nM. On human Orexin 1 receptor (setting [1]), the dissociation half-life turned out to be 1.73 h, the koff is 0.000117 s⁻¹, the kon was 146000 M⁻¹ s⁻¹ and the tR was determined as 150 min. On human Orexin 1 receptor (setting [1]), the Ki was 0.794 nM. Besides, on human Orexin 1 receptor (setting [2]), the dissociation half-life stood at 2.83 h, the dissociation rate constant (koff) was 8.33e-05 s⁻¹, the kon was 140000 M⁻¹ s⁻¹ and the tR amounted to 245 min. Also, the Ki at human Orexin 1 receptor (setting [2]) is 0.501 nM. Besides, on human Orexin 1 receptor (setting [3]), the dissociation half-life came out at 4.13 h, the koff is 5e-05 s⁻¹, the kon was 130000 M⁻¹ s⁻¹ and the tR was 357 min. For the same molecule, the Ki on human Orexin 1 receptor (setting [3]) is 0.316 nM. Moreover, on human Orexin 2 receptor, the Ki was 316 nM, the dissociation half-life is 4.1 min, the koff was 0.00352 s⁻¹ and the kon was 10800 M⁻¹ s⁻¹. On human Orexin 2 receptor, this molecule showed a tR of 5.9 min.

`Cc1ccc(-n2nccn2)c(C(=O)N(C)[C@@H](C)CNc2ncc(C(F)(F)F)cn2)n1` [Example 2, N,6-dimethyl-3-(2H-1,2,3-triazol-2-yl)-N-[(2S)-1-{[5-(trifluoromethyl)pyrimidin-2-yl]amino}propan-2-yl]pyridine-2-carboxamide]: on human OX2 receptor, the Ki was 794 nM. On human Orexin 1 receptor (setting [1]), this molecule gave a dissociation half-life of 1 h, a koff of 0.000183 s⁻¹, a kon of 78000 M⁻¹ s⁻¹ and a tR of 87 min. Moreover, the Ki on human Orexin 1 receptor (setting [1]) is 2.51 nM. At human Orexin 1 receptor (setting [2]), this molecule showed a dissociation half-life of 1.08 h, a koff of 0.000183 s⁻¹, a kon of 76200 M⁻¹ s⁻¹ and a tR of 93 min. The Ki at human Orexin 1 receptor (setting [2]) is 2.51 nM. At human Orexin 1 receptor (setting [3]), this molecule gave a dissociation half-life of 1.12 h, a koff of 0.000167 s⁻¹, a kon of 75300 M⁻¹ s⁻¹ and a tR of 96 min. Further, the Ki on human Orexin 1 receptor (setting [3]) is 2.51 nM. Moreover, at human Orexin 2 receptor, the Ki was 1580 nM, the dissociation half-life worked out at 4.3 min, the koff was 0.00298 s⁻¹ and the kon was 1830 M⁻¹ s⁻¹. Also, the tR on human Orexin 2 receptor stood at 6.2 min.
